Patent US4243674A, “9-Hydroxydibenzo[b,d]pyrans and intermediates therefore” (priority 1978, dated 1981)
Where two headings read alike, the source gives them in different places.

Columns and labels:
[1] = tested on: phenylbenzoquinone-induced writhing; assay: Suppression of phenylbenzoquinone irritant-induced writhing (PBQ); assay type: in vivo, Carworth Farms CF-1 mice; settings: mice; for ED50: Mus musculus, read-out: ANALGESIC ACTIVITY ED50, PBQ
Method: Test Using Chemical Nociceptive Stimuli
Suppression of Phenylbenzoquinone Irritant-Induced Writhing
Groups of 5 Carworth Farms CF-1 mice are pretreated subcutaneously or orally with saline, morphine, codeine or the test compound. Twenty minutes (if treated subcutaneously) or fifty minutes (if treated orally) later, each group is treated with intraperitoneal injection of phenylbenzoquinone, an irritant known to produce abdominal contractions. The mice are observed for 5 minutes for the presence or absence of writhing starting 5 minutes after the injection of the irritant. MPE50 's of the drug pretreatments in blocking writhing are ascertained.
(§1) Results of the above tests are recorded as percent maximum possible effect (% MPE). The % MPE of each group is statistically compared to the % MPE of the standard and the predrug control values. The % MPE is calculated as follows: [formula]
(§2) By means of the above procedures, the analgesic activity of several compounds of this invention and of certain prior art compounds are determined. The data are reported in terms of maximum possible effect.
(§3) PBQ=phenylbenzoquinone-induced writhing; TF=tail flick; HP=hot plate; RTC=rat tail clamp; FJ=flinch jump; and TI=tail immersion assays.

tail flick = assay: Mouse tail flick analgesic testing (TF); assay type: in vivo, mice; settings: for ANALGESIC ACTIVITY ED50, TF / ED50: tail flick, mice; for ED50: Mus musculus
Text: (§4) Tests Using Thermal Nociceptive Stimuli
(b) Mouse Tail Flick Analgesic Testing
Tail flick testing in mice is modified after D'Amour and Smith, J. Pharmacol. Exp. Ther., 72, 74-79 (1941), using controlled high intensity heat applied to the tail. Each mouse is placed in a snug-fitting metal cylinder, with the tail protruding through one end. This cylinder is arranged so that the tail lies flat over a concealed heat lamp. At the onset of testing, an aluminum flag over the lamp is drawn back allowing the light beam to pass through the slit and focus onto the end of the tail. A timer is simultaneously activated. The latency of a sudden flick of the tail is ascertained. Untreated mice usually react within 3-4 seconds after exposure to the lamp. The end point for protection is 10 seconds. Each mouse is tested at 0.5 and 2 hours after treatment with morphine and the test compound. Morphine has an MPE50 of 3.2-5.6 mg./kg. (s.c.).
as §1, §2, §3

hot plate = assay: Mouse hot plate analgesic testing (HP); assay type: in vivo, mice; settings: for ANALGESIC ACTIVITY ED50, HP / ED50: hot plate, mice; for ED50: Mus musculus
Method: as §4
(a) Mouse Hot Plate Analgesic Testing
The method used is modified after Woolfe and MacDonald, J. Pharmacol. Exp. Ther., 80, 300-307 (1944). A controlled heat stimulus is applied to the feet of mice on a 1/8" thick aluminum plate. A 250 watt reflector infrared heat lamp is placed under the bottom of the aluminum plate. A thermal regulator, connected to thermistors on the plate surface, programs the heat lamp to maintain a constant temperature of 57° C. Each mouse is dropped into a glass cylinder (61/2" diameter) resting on the hot plate, and timing is begun when the animal's feet tough the plate. The mouse is observed at 0.5 and 2 hours after treatment when the test compound for the first "flicking"movements of one or both hind feet, or until 10 seconds elapse without such movements. Morphine has an MPE50 =4-5.6 mg./kg. (s.c.).
as §1, §2, §3

rat tail clamp = assay: Haffner tail pinch procedure / rat tail clamp (RTC); assay type: in vivo, male albino rats, Charles River (Sprague-Dawley) CD strain; settings: for ED50: 1 hour, read-out: ANALGESIC ACTIVITY ED50, RTC 1 hour
Method: Tests Using Pressure Nociceptive Stimuli
Effect on the Haffner Tail Pinch Procedure
A modification of the procedure of Haffner, Experimentelle Prufung Schmerzstillender. Mittel Deutch Med. Wschr., 55, 731-732 (1929) is used to ascertain the effects of the test compound on aggressive attacking responses elicited by a stimulus pinching the tail. Male albino rats (50-60 b.) of the Charles River (Sprague-Dawley) CD strain are used. Prior to drug treatment, and again at 0.5, 1, 2 and 3 hours after treatment, a Johns Hopkins 2.5-inch "bulldog" clamp is clamped onto the root of the rat's tail. The endpoint at each trial is clear attacking and biting behavior directed toward the offending stimulus, with the latency for attack recorded in seconds. The clamp is removed in 30 seconds if attacking has not yet occurred, and the latency of response is recorded as 30 seconds. Morphine is active at 17.8 mg./kg. (i.p.).
as §1, §2, §3

flinch jump = assay: Flinch-jump test (FJ); assay type: in vivo, male albino rats, Charles River (Sprague-Dawley) CD strain; settings: Rattus norvegicus, rats, 2 hours, read-out: ANALGESIC ACTIVITY ED50, FJ 2 hours
Text: Tests Using Electrical Nociceptive Stimuli
A modification of the flinch-jump procedure of Tenen, Psychopharmacologia, 12, 278-285 (1968) is used for determining pain thresholds. Male albino rats (175-200 g.) of the Charles River (Sprague-Dawley) CD strain are used. Prior to receiving the drug, the feet of each rat are dipped into a 20% glycerol/saline solution. The animals are then placed in a chamber and presented with a series of 1-second shocks to the feet which are delivered in increasing intensity at 30-second intervals. These intensities are 0.26, 0.39, 0.52, 0.78, 1.05, 1.31, 1.58, 1.86, 2.13, 2.42, 2.72 and 3.04 mA. Each animal's behavior is rated for the presence of (a) flinch, (b) squeak and (c) jump or rapid forward movement at shock onset. Single upward series of shock intensities are presented to each rat just prior to, and at 0.5, 2, 4 and 24 hours subsequent to drug treatment.
as §1, §2, §3

tail immersion = assay: Tail immersion procedure (TI); assay type: in vivo, male albino mice, Charles River CD-1 strain; settings: Mus musculus, 0.5 h, read-out: ANALGESIC ACTIVITY ED50, TI 1/2 hour
Method: (c) Tail Immersion Procedure
The method is a modification of the receptacle procedure developed by Benbasset, et al., Arch. int. Pharmacodyn., 122, 434 (1959). Male albino mice (19-21 g.) of the Charles River CD-1 strain are weighed and marked for identification. Five animals are normally used in each drug treatment group with each animal serving as its own control. For general screening purposes, new test agents are first administered at a dose of 56 mg./kg. intraperitoneally or subcutaneously, delivered in a volume of 10 ml./kg. Preceding drug treatment and at 0.5 and 2 hours post drug, each animal is placed in the cylinder. Each cylinder is provided with holes to allow for adequate ventilation and is closed by a round nylon plug through which the animal's tail protrudes. The cylinder is held in an upright position and the tail is completely immersed in the constant temperature waterbath (56° C.). The endpoint for each trial is an energetic jerk or twitch of the tail coupled with a motor response. In some cases, the endpoint may be less vigorous post drug. To prevent undue tissue damage, the trial is terminated and the tail removed from the waterbath within 10 seconds. The response latency is recorded in seconds to the nearest 0.5 second. A vehicle control and a standard of known potency are tested concurrently with screening candidates. If the activity of a test agent has not returned to baseline values at the 2-hour testing point, response latencies are determined at 4 and 6 hours. A final measurement is made at 24 hours if activity is still observed at the end of the test day.
as §1, §2, §3

CC(CCCc1ccccc1)c1cc(O)c2c(c1)OC(C)C1CCC(O)CC21 (racemic) [CH(CH3)(CH2)3C6 H5^(a), dl-6aα-7,8,9,10,10a-hexahydro-1-hydroxy-6α-methyl-3-(1-methyl-4-phenylbutyl)-6H-dibenzo[b,d]pyran-9β-ol]
ANALGESIC ACTIVITY ED50, PBQ [1]: 0.94 mg/kg
ANALGESIC ACTIVITY ED50, TF (tail flick): 1.6 mg/kg
ANALGESIC ACTIVITY ED50, HP (hot plate): 5.6 mg/kg

CCCCCc1cc(O)c2c(c1)OC(C)(C)[C@@H]1CC[C@@H](O)C[C@@H]21 (relative stereo) [C5 H11, reference compound]
ED50 [1]: 0.68 mg/kg
ED50 (tail flick): 3.2 mg/kg
ED50 (hot plate): ≥ 17.8 mg/kg
ED50 (rat tail clamp): 58 mg/kg
ED50 (flinch jump): 8 mg/kg
ED50 (tail immersion; tail immersion, mice, 1/2 hour): 13 mg/kg

CC(CCCc1ccncc1)c1cc(O)c2c(c1)OC(C)(C)[C@@H]1CC[C@@H](O)C[C@@H]21 (relative stereo) [CH2 (CH3)(CH2)34-pyridyl, dl-6aβ,7,8,9,10,10aα-hexahydro-1-hydroxy-6,6-dimethyl-3-[1-methyl-4-(4-pyridyl)butyl]-6H-dibenzo[b,d]pyran-9β-ol]
ED50 [1]: 0.17 mg/kg

CC(CCCCc1ccccc1)c1cc(O)c2c(c1)OC(C)(C)[C@@H]1CC[C@@H](O)C[C@@H]21 (relative stereo) [CH(CH3 (CH2)4C6 H5, dl-6aβ,7,8,9,10,10aα-hexahydro-1-hydroxy-6,6-dimethyl-3-(1-methyl-5-phenylpentyl)-6H-dibenzo[b,d]pyran-9β-ol]
ED50 [1]: 1.33 mg/kg
ED50 (tail flick): 2.8 mg/kg
ED50 (hot plate): 3.9 mg/kg
ED50 (rat tail clamp): < 3.2 mg/kg
ED50 (flinch jump): 0.42 mg/kg
ED50 (tail immersion; tail immersion, mice, 1/2 hour): 3.5 mg/kg

CC(CCc1ccccc1)c1cc(O)c2c(c1)OC(C)(C)[C@@H]1CC[C@@H](O)C[C@@H]21 (relative stereo) [CH(CH3)(CH2)2C6 H5, dl-6aβ,7,8,9,10,10aα-hexahydro-1-hydroxy-6,6-dimethyl-3-(1-methyl-3-phenylpropyl)-6H-dibenzo[b,d]pyran-9β-ol]
ED50 [1]: 5 mg/kg
ED50 (tail flick): > 10 mg/kg
ED50 (hot plate): > 10 mg/kg

CC(CCOc1ccccc1)c1cc(O)c2c(c1)OC(C)(C)[C@@H]1CC[C@@H](O)C[C@@H]21 (relative stereo) [CH(CH3)(CH2)2OC6 H5, dl-6aβ,7,8,9,10,10aα-hexahydro-1-hydroxy-6,6-dimethyl-3-(1-methyl-3-phenoxypropyl)-6H-dibenzo[b,d]pyran-9β-ol]
ED50 [1]: 0.1 to 1 mg/kg

CC(CCCc1ccccc1)c1cc(O)c2c(c1)OC(C)(C)[C@@H]1CC[C@@H](O)C[C@@H]21 (relative stereo) [CH(CH3)(CH2)3C6 H5, dl-6aβ,7,8,9,10,10aα-Hexahydro-1-hydroxy-6,6-dimethyl-3-(1-methyl-4-phenylbutyl)-6H-dibenzo[b,d]pyran-9β-ol]
ED50 [1]: 0.062 mg/kg
ED50 (tail flick): 0.32 mg/kg
ED50 (hot plate): 0.75 mg/kg
ED50 (rat tail clamp): 1.8 mg/kg
ED50 (flinch jump): 0.11 mg/kg
ED50 (tail immersion; tail immersion, mice, 1/2 hour): 0.3 mg/kg

CC(CCCOc1ccccc1)c1cc(O)c2c(c1)OC(C)(C)[C@@H]1CC[C@@H](O)C[C@@H]21 (relative stereo) [CH(CH3)(CH2)3OC6 H5, dl-6aβ,7,8,9,10,10aα-hexahydro-1-hydroxy-6,6-dimethyl-3-(1-methyl-4-phenoxybutyl)-6H-dibenzo[b,d]pyran-9β-ol]
ED50 [1]: 0.39 mg/kg
ED50 (tail flick): 1.2 mg/kg
ED50 (hot plate): ~10 mg/kg

CCCCCC(C)C(C)c1cc(O)c2c(c1)OC(C)(C)[C@@H]1CC[C@@H](O)C[C@@H]21 (relative stereo) [CH(CH3)CH(CH3)C5 H11, reference compound]
ED50 [1]: 0.1 mg/kg
ED50 (tail flick): 0.35 mg/kg
ED50 (hot plate): 1.1 mg/kg
ED50 (rat tail clamp): 0.44 mg/kg
ED50 (flinch jump): 0.11 mg/kg
ED50 (tail immersion; tail immersion, mice, 1/2 hour): 0.38 mg/kg

CC1(C)Oc2cc(OC3CCCCC3)cc(O)c2[C@@H]2C[C@H](O)CC[C@H]21 (relative stereo) [OC6 H11, dl-6aβ,7,8,9,10,10aα-1-hydroxy-6,6-dimethyl-3-cyclohexyloxy-6H-dibenzo[b,d]pyran-9β-ol]
ED50 [1]: 5.3 mg/kg
ED50 (tail flick): > 10 mg/kg
ED50 (hot plate): > 10 mg/kg

CC(CCc1ccccc1)Oc1cc(O)c2c(c1)OC(C)(C)[C@@H]1CC[C@@H](O)C[C@@H]21 (relative stereo) [OCH(CH3)(CH2)2C6 H5, dl-6aβ,7,8,9,10,10aα-hexahydro-1-hydroxy-6,6-dimethyl-3-(1-methyl-3-phenylpropoxy)-6H-dibenzo[b,d]pyran-9β-ol]
ED50 [1]: 0.21 mg/kg
ED50 (tail flick): 1.3 mg/kg
ED50 (hot plate): ~3.2 mg/kg

CC(CCCc1ccccc1)Oc1cc(O)c2c(c1)OC(C)(C)[C@@H]1CC[C@@H](O)C[C@@H]21 (relative stereo) [OCH(CH3)(CH2)3C6 H5, dl-6aβ,7,8,9,10,10aα-hexahydro-1-hydroxy-6,6-dimethyl-3-(1-methyl-4-phenylbutoxy)-6H-dibenzo[b,d]pyran-9β-ol]
ED50 [1]: 0.11 mg/kg
ED50 (tail flick): 0.33 mg/kg
ED50 (hot plate): 0.76 mg/kg
ED50 (rat tail clamp): 1.9 mg/kg
ED50 (flinch jump): 0.44 mg/kg
ED50 (tail immersion; tail immersion, mice, 1/2 hour): 0.4 mg/kg

CN1CC[C@]23c4c5ccc(O)c4O[C@H]2[C@@H](O)C=C[C@H]3[C@H]1C5 [morphine, reference compound]
ANALGESIC ACTIVITY ED50, PBQ [1]: 0.8 mg/kg
MPE50 tail flick (tail flick; s.c.): 3.2 to 5.6 mg/kg
ANALGESIC ACTIVITY ED50, TF (tail flick): 3.8 mg/kg
ANALGESIC ACTIVITY ED50, HP (hot plate): 4.7 mg/kg
MPE50 hot plate (hot plate; s.c., 57° C. plate): 4 to 5.6 mg/kg
ANALGESIC ACTIVITY ED50, RTC (1/2 hr.) (rat tail clamp; 1/2 hr. (morphine only), 30 min): 2.9 mg/kg
ED50 (tail immersion): 4 mg/kg
